Where two headings read alike, the source gives them in different places.
Assays:
[1] = molecular target: BACE 1 (Beta Secretase enzyme) (Homo sapiens, UniProt P56817); experiment: In vitro enzymatic BACE FRET assay; assay type: biochemical
In short: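 BACE activity read by FRET: peptide substrate (50 nM) carrying fluorophore and quencher across the cleavage site, incubated one hour in 0.05 M acetate pH 4.2, 10% DMSO final, 100 uM genapol. Tris addition raises pH to neutrality to stop the reaction before fluorescence is read.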

[2] = tested on: Aβ40 in conditioned medium of cells stably expressing Amyloid Precursor Protein (APP); experiment: In vitro BACE cell-based assay (HEK cell assay), Aβ40 sandwich ELISA
In short: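 Cells stably expressing APP received 10-point compound dilutions (top 100 μM or 10 μM; 0.1% DMSO) for 24 h. Secreted Aβ40 was quantified by sandwich ELISA (pAb40 capture, biotinylated 6E10 detection, europium time-resolved fluorescence). IC50 was derived from percent inhibition versus concentration.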

[3] = IC50 range symbols, Table 1, read-out: BACE 1 FRET assay
[4] = Homo sapiens, HEK293, 24 h, IC50 range symbols, Table 1, Aβ40, 24 h incubation, read-out: HEK cell assay
[5] = IC50 range symbols, Table 1, Aβ40, 24 h incubation, read-out: HEK cell assay

Sequence of BACE 1 (Beta Secretase enzyme) (P56817 46-501, species assumed): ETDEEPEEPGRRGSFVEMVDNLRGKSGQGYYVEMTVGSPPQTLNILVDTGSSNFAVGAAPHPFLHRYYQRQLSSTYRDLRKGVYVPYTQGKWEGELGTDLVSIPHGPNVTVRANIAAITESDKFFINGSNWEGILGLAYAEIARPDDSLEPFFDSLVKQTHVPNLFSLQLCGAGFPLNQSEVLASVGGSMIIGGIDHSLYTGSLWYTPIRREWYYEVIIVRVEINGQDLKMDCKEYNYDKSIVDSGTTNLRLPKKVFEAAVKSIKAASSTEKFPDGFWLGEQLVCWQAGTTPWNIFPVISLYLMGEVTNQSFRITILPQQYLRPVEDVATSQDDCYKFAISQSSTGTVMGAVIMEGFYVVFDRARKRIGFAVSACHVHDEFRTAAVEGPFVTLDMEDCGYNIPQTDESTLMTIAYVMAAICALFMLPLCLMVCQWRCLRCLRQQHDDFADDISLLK

Molecule	IC50 [1, 3]	IC50 [2, 4]	IC50 [2, 5]	IC50 ([1]; bound stated, read-out: IC50 value in the FRET BACE enzyme assay)	IC50 ([2]; Homo sapiens, HEK293, bound stated in text, read-out: IC50 value in the BACE cell-based in-vitro assay)
Nc1nc2ccc(-c3cccc(F)c3)cc2cc1CCC(=O)NCC1CCCCC1 [Example 43, 3-(2-amino-6-(3-fluorophenyl)quinolin-3-yl)-N-(cyclohexylmethyl)propanamide]	0.5 to 1 µM	1 to 5 µM			
3-(2-amino-6-(2-methyl-6-(1-pyrrolidinylcarbonyl)phenyl)-3-quinolinyl)-N-(2,2-dimethyltetrahydro-2H-pyran-4-yl)-2-methylpropanamide [Example 145]	< 0.5 µM		< 0.5 µM		
3-(2-amino-6-(2-((2-methoxyphenyl)carbonyl)phenyl)-3-quinolinyl)-N-(2,2-dimethyltetrahydro-2H-pyran-4-yl)-2-methylpropanamide [Example 146]	< 0.5 µM		< 0.5 µM		
Cc1ccccc1-c1ccc2nc(N)c(CCC(=O)NC3CCCN(C)C3)cc2c1 (centres unmarked) [Example 39, 3-(2-amino-6-o-tolylquinolin-3-yl)-N-(1-methylpiperidin-3-yl)propanamide]	1 to 5 µM	1 to 5 µM			
Cc1ccccc1-c1ccc2nc(N)c(CCC(=O)NCc3nccs3)cc2c1 [Example 63, 3-(2-amino-6-o-tolylquinolin-3-yl)-N-(thiazol-2-ylmethyl)propanamide]	< 0.5 µM	1 to 5 µM			
CC(Cc1cc2cc(-c3ccc(F)cc3)ccc2nc1N)C(=O)NC1CCOC(C)(C)C1 (centres unmarked) [Example 167, 3-(2-amino-6-(4-fluorophenyl)-3-quinolinyl)-N-(2,2-dimethyltetrahydro-2H-pyran-4-yl)-2-methylpropanamide]	1 to 5 µM	> 5 µM			
Cc1ccccc1-c1ccc2nc(N)c(C[C@@H](C)C(=O)NC3CCOC(C)C3)cc2c1 (stereo partly drawn) [Example 158, (2R)-3-(2-amino-6-o-tolylquinolin-3-yl)-2-methyl-N-(2-methyltetrahydro-2H-pyran-4-yl)propanamide]	< 0.5 µM	< 0.5 µM			
Cc1ccccc1-c1ccc2nc(N)c(CCC(=O)NCC(C)(C)O)cc2c1 [Example 144, 3-(2-amino-6-(2-methylphenyl)-3-quinolinyl)-N-(2-hydroxy-2-methylpropyl)propanamide]	1 to 5 µM	1 to 5 µM			
3-(3-amino-7-o-tolylnaphthalen-2-yl)-N-(2-methoxy-2-methylpropyl)propanamide [Example 29]	0.5 to 1 µM		1 to 5 µM		
Cc1ccccc1-c1ccc2nc(N)c(C[C@@H](C)C(=O)NC3CCCC(C)(C)C3)cc2c1 (stereo partly drawn) [Example 162, (2R)-3-(2-amino-6-(2-methylphenyl)-3-quinolinyl)-N-(3,3-dimethylcyclohexyl)-2-methylpropanamide]	< 0.5 µM	< 0.5 µM			
3-(3-amino-7-o-tolylnaphthalen-2-yl)-N-(1-phenylethyl)propanamide [Example 30]	< 0.5 µM		1 to 5 µM		
Cc1ccccc1-c1ccc2nc(N)c(CC(C)C(=O)NC3CCOC4(CCC4)C3)cc2c1 [Example 170, (2R)-3-(2-amino-6-(2-methylphenyl)-3-quinolinyl)-2-methyl-N-(5-oxaspiro[35]non-8-yl)propanamide]	< 0.5 µM	< 0.5 µM			
COc1ccccc1-c1ccc2nc(N)c(CCC(=O)NCC3CCCCC3)cc2c1 [Example 44, 3-(2-amino-6-(2-methoxyphenyl)quinolin-3-yl)-N-(cyclohexylmethyl)propanamide]	< 0.5 µM	1 to 5 µM			
CNC(=O)[C@H](C)Cc1cc2cc(-c3c(C)cccc3C(=O)N3CCCC3)ccc2nc1N [Example 9, (R)-3-(2-amino-6-(2-methyl-6-(pyrrolidine-1-carbonyl)phenyl)quinolin-3-yl)-N,2-dimethylpropanamide]	< 0.5 µM	< 0.5 µM		< 0.05 µM	< 0.1 µM
Cc1cccnc1-c1ccc2nc(N)c(CC(C)C(=O)NCCC(F)(F)F)cc2c1 (centres unmarked) [Example 112, 3-(2-amino-6-(3-methylpyridin-2-yl)quinolin-3-yl)-2-methyl-N-(3,3,3-trifluoropropyl)propanamide]	< 0.5 µM	0.5 to 1 µM			
Cc1cccc(C(=O)N2CCCC2)c1-c1ccc2nc(N)c(CC(C)C(=O)NC3CC3)cc2c1 (centres unmarked) [Example 150, 3-(2-amino-6-(2-methyl-6-(pyrrolidine-1-carbonyl)phenyl)quinolin-3-yl)-N-cyclopropyl-2-methylpropanamide]	< 0.5 µM	< 0.5 µM			
Cc1ccccc1-c1ccc2nc(N)c(CC(C)C(=O)NCc3cnn(C)c3)cc2c1 (centres unmarked) [Example 94, 3-(2-amino-6-o-tolylquinolin-3-yl)-2-methyl-N-((1-methyl-1H-pyrazol-4-yl)methyl)propanamide]	< 0.5 µM	1 to 5 µM			
Cc1ccccc1-c1ccc2nc(N)c(CCC(=O)N[C@H](C)c3cccnc3)cc2c1 [Example 78, 3-(2-amino-6-o-tolylquinolin-3-yl)-N-((R)-1-(pyridin-3-yl)ethyl)propanamide]	1 to 5 µM		> 5 µM		
CC(Cc1cc2cc(-c3ccccc3Cl)ccc2nc1N)C(=O)NC1CCOC2(CCC2)C1 (centres unmarked) [Example 171, 3-(2-amino-6-(2-chlorophenyl)-3-quinolinyl)-2-methyl-N-(5-oxaspiro[3,5]non-8-yl)propanamide]	< 0.5 µM	< 0.5 µM			
Cc1ccc(NC(=O)CCc2cc3cc(-c4ccccc4C)ccc3nc2N)c(F)c1 [Example 53, 3-(2-amino-6-o-tolylquinolin-3-yl)-N-(2-fluoro-4-methylphenyl)propanamide]	1 to 5 µM	1 to 5 µM			
Cc1ccccc1-c1ccc2nc(N)c(CC(C)C(=O)N[C@H](C)c3ccccc3OC(F)F)cc2c1 (stereo partly drawn) [Example 130, 3-(2-amino-6-o-tolylquinolin-3-yl)-N-((R)-1-(2-(difluoromethoxy)phenyl)ethyl)-2-methylpropanamide]	< 0.5 µM		1 to 5 µM		
Cc1nccn1-c1ccc2nc(N)c(CCC(=O)NCC3CCCCC3)cc2c1 [Example 4, 3-(2-amino-6-(2-methyl-1H-imidazol-1-yl)quinolin-3-yl)-N-(cyclohexylmethyl)propanamide]	> 5 µM	> 5 µM			
Cc1ccccc1-c1ccc2nc(N)c(CCC(=O)NCCC3CCCCC3)cc2c1 [Example 24, 3-(2-amino-6-o-tolylquinolin-3-yl)-N-(2-cyclohexylethyl)propanamide]	< 0.5 µM	< 0.5 µM			
CC(Cc1cc2cc(-c3ncccc3CCN3CCCC3)ccc2nc1N)C(=O)NCCC(C)(C)C (centres unmarked) [Example 125, 3-(2-amino-6-(3-(2-(pyrrolidin-1-yl)ethyl)pyridin-2-yl)quinolin-3-yl)-N-(3,3-dimethylbutyl)-2-methylpropanamide]	< 0.5 µM	< 0.5 µM			
3-(6-(3-chloropyridin-2-yl)quinolin-3-yl)-N-((4,4-difluorocyclohexyl)methyl)-2-methylpropanamide [Example 99]	< 0.5 µM		1 to 5 µM		
Cc1ccccc1-c1ccc2nc(N)c(CCC(=O)NCC3(C)COC3)cc2c1 [Example 58, 3-(2-amino-6-o-tolylquinolin-3-yl)-N-((3-methyloxetan-3-yl)methyl)propanamide]	1 to 5 µM	> 5 µM			
Cc1ccccc1-c1ccc2nc(N)c(CCC(=O)NCC3CCCO3)cc2c1 (centres unmarked) [Example 17, 3-(2-amino-6-o-tolylquinolin-3-yl)-N-((tetrahydrofuran-2-yl)methyl)propanamide]	< 0.5 µM	> 5 µM			

Reference: patent US9296698B2, “Amino heteroaryl compounds as beta-secretase modulators and methods of use” (Amgen Inc., priority 2009, dated 2016)
